Source: the NIST ThermoML archive (doi:10.1016/j.jct.2012.07.009)
± gives the expanded uncertainty stated by the source. Each block holds one molecule with its values, some of them ahead of it.

Experiment: an = ratio of the nth substance listed
Conditions: 298.15 K, 101 kPa, Liquid, Vibrating tube method

mass density (a1 = 0.0025): 998.08 ± 0.15 kg/m3
mass density (a1 = 0.0053): 998.93 ± 0.15 kg/m3
mass density (a1 = 0.0101): 1000.45 ± 0.15 kg/m3
mass density (a1 = 0.0134): 1001.53 ± 0.15 kg/m3
mass density (a1 = 0.016): 1002.32 ± 0.15 kg/m3
Compound: O=C1CNC(=O)CN1 [2,5-diketopiperazine] + O

mass density (a1 = 0.1072): 1039.03 ± 0.16 kg/m3
mass density (a1 = 0.1494): 1051.67 ± 0.16 kg/m3
mass density (a1 = 0.1778): 1060.02 ± 0.17 kg/m3
mass density (a1 = 0.2042): 1068.38 ± 0.17 kg/m3
mass density (a1 = 0.2232): 1074.06 ± 0.17 kg/m3
mass density (a1 = 0.2433): 1080.28 ± 0.17 kg/m3
Compound: NCC(=O)O [2-aminoacetic acid] + O

mass density (a1 = 0.1079): 1027.42 ± 0.16 kg/m3
mass density (a1 = 0.1403): 1040.98 ± 0.16 kg/m3
mass density (a1 = 0.1768): 1056.44 ± 0.17 kg/m3
mass density (a1 = 0.1982): 1065.68 ± 0.17 kg/m3
mass density (a1 = 0.2153): 1072.61 ± 0.17 kg/m3
mass density (a1 = 0.2301): 1077.43 ± 0.17 kg/m3
Compound: O=C(O)CNCC(=O)O [N-(carboxymethyl)glycine] + O
